These are literature values, as cited in PubChem BioAssay AID1259409 (Chemical Carcinogenesis Research Information System (CCRIS), 2018).

For this data set, the system named is rodent chemically induced tumor inhibition, incidence and multiplicity. Kind of data set: CCRIS tumor inhibitor studies. Particulars: Promoter: NONE USED.

`C[n+]1ccc(-c2cc[n+](C)cc2)cc1`: the “tumour outcome (control, treated, inhibition, significance)” value (Carcinogen: 7,12-DIMETHYLBENZ[A]ANTHRACENE, 57-97-6, Dose [Inhibitor]: 0, 26 MG/KG BW 1/WK FOR 4 WK BEGINNING POST CARCINOGEN DOSE (STUDY DURATION: 4 MO), Route [Inhibitor]: SUBCUTANEOUS, Species: MOUSE, Strain/Sex: ICR/FEMALE, Target Tissue: Type of Lesion: LUNG: TUMOR, Dose [Carcinogen]: 1 MG/KG BW ONCE ADMINISTERED TO NEONATAL MICE) is 4/10 (40%), 2/9 (22%), 45%, not calculated; the “tumour outcome (control, treated, inhibition, significance)” value (Carcinogen: 7,12-DIMETHYLBENZ[A]ANTHRACENE, 57-97-6, Dose [Inhibitor]: 0, 26 MG/KG BW 1/WK FOR 4 WK BEGINNING POST CARCINOGEN DOSE (STUDY DURATION: 4 MO), Route [Inhibitor]: SUBCUTANEOUS, Species: MOUSE, Strain/Sex: ICR/FEMALE, Target Tissue: Type of Lesion: LUNG: TUMOR, Dose [Carcinogen]: 10 MG/KG BW ONCE ADMINISTERED TO NEONATAL MICE) was 9/11 (82%), 4/7 (57%), 30%, not calculated; the “tumour outcome (control, treated, inhibition, significance)” value (Carcinogen: 7,12-DIMETHYLBENZ[A]ANTHRACENE, 57-97-6, Dose [Inhibitor]: 0, 26 MG/KG BW 1/WK FOR 4 WK BEGINNING POST CARCINOGEN DOSE (STUDY DURATION: 4 MO), Route [Inhibitor]: SUBCUTANEOUS, Species: MOUSE, Strain/Sex: ICR/MALE, Target Tissue: Type of Lesion: LUNG: TUMOR, Dose [Carcinogen]: 1 MG/KG BW ONCE ADMINISTERED TO NEONATAL MICE) was 2/10 (20%), 0/9 (0%), 100%, not calculated; the “tumour outcome (control, treated, inhibition, significance)” value (Carcinogen: 7,12-DIMETHYLBENZ[A]ANTHRACENE, 57-97-6, Dose [Inhibitor]: 0, 26 MG/KG BW 1/WK FOR 4 WK BEGINNING POST CARCINOGEN DOSE (STUDY DURATION: 4 MO), Route [Inhibitor]: SUBCUTANEOUS, Species: MOUSE, Strain/Sex: ICR/MALE, Target Tissue: Type of Lesion: LUNG: TUMOR, Dose [Carcinogen]: 10 MG/KG BW ONCE ADMINISTERED TO NEONATAL MICE) is given as 9/11 (82%), 4/9 (44%), 46%, not calculated; the “tumour outcome (control, treated, inhibition, significance)” value (Carcinogen: 7,12-DIMETHYLBENZ[A]ANTHRACENE, 57-97-6, Dose [Inhibitor]: 0, 26 MG/KG BW 1/WK FOR 4 WK BEGINNING POST CARCINOGEN DOSE (STUDY DURATION: 6 MO), Route [Inhibitor]: SUBCUTANEOUS, Species: MOUSE, Strain/Sex: ICR/MALE, Target Tissue: Type of Lesion: LIVER: TUMOR, Dose [Carcinogen]: 10 MG/KG BW ONCE ADMINISTERED TO NEONATAL MICE) is 4/11 (36%), 2/17 (12%), 67%, not calculated; the “tumour outcome (control, treated, inhibition, significance)” value (Carcinogen: 7,12-DIMETHYLBENZ[A]ANTHRACENE, 57-97-6, Dose [Inhibitor]: 0, 26 MG/KG BW 1/WK FOR 4 WK BEGINNING POST CARCINOGEN DOSE (STUDY DURATION: 6 MO), Route [Inhibitor]: SUBCUTANEOUS, Species: MOUSE, Strain/Sex: ICR/MALE, Target Tissue: Type of Lesion: LUNG: TUMOR, Dose [Carcinogen]: 1 MG/KG BW ONCE ADMINISTERED TO NEONATAL MICE) was 3/10 (30%), 1/9 (11%), 63%, not calculated. Besides, where the note is “Carcinogen: 7,12-DIMETHYLBENZ[A]ANTHRACENE, 57-97-6, Dose [Inhibitor]: 0, 26 MG/KG BW 1/WK FOR 4 WK BEGINNING POST CARCINOGEN DOSE (STUDY DURATION: 6 MO), Route [Inhibitor]: SUBCUTANEOUS, Species: MOUSE, Strain/Sex: ICR/MALE, Target Tissue: Type of Lesion: LUNG: TUMOR, Dose [Carcinogen]: 10 MG/KG BW ONCE ADMINISTERED TO NEONATAL MICE”, the “tumour outcome (control, treated, inhibition, significance)” value was 9/11 (82%), 13/17 (76%), 7%, not calculated.

In the case of `CN1CCN(CCCN2c3ccccc3Sc3ccc(C(F)(F)F)cc32)CC1`, the “tumour outcome (control, treated, inhibition, significance)” value (Carcinogen: AZOXYMETHANE, 25843-45-2, Dose [Inhibitor]: 0, 15 MG/KG BW IN OLIVE OIL 1/2 D FOR 35 WK BEGINNING WITH START OF CARCINOGEN TREATMENT (STUDY DURATION: 35 WK), Route [Inhibitor]: SUBCUTANEOUS, Species: RAT, Strain/Sex: WISTAR/MALE, Target Tissue: Type of Lesion: COLON: TUMORS, Dose [Carcinogen]: 7.4 MG/KG BW IN 0.9% SALINE 1/WK FOR 10 WK) was 8/17 (47%), 11/17 (65%), -38%, not significant and the “tumour outcome (control, treated, inhibition, significance)” value (Carcinogen: AZOXYMETHANE, 25843-45-2, Dose [Inhibitor]: 0, 30 MG/KG BW IN OLIVE OIL 1/2 D FOR 35 WK BEGINNING WITH START OF CARCINOGEN TREATMENT (STUDY DURATION: 35 WK), Route [Inhibitor]: SUBCUTANEOUS, Species: RAT, Strain/Sex: WISTAR/MALE, Target Tissue: Type of Lesion: COLON: TUMORS, Dose [Carcinogen]: 7.4 MG/KG BW IN 0.9% SALINE 1/WK FOR 10 WK) is recorded as 8/17 (47%), 9/20 (45%), 4%, not significant.

`Oc1cc(O)cc(O)c1`: the “tumour outcome (control, treated, inhibition, significance)” value (Carcinogen: BENZO[A]PYRENE, 50-32-8, Dose [Inhibitor]: 0.03 MMOL/G OF DIET DAILY STARTING 7 D BEFORE AND CONTINUING THROUGH 3 D AFTER CARCINOGEN TREATMENT FOLLOWED BY OBSERVAT, Route [Inhibitor]: ORAL, Species: MOUSE, Strain/Sex: ICR/FEMALE, Target Tissue: Type of Lesion: FORESTOMACH: NEOPLASM, Dose [Carcinogen]: 1 MG IN 0.2 ML CORN OIL 2/WK FOR 4 WK) was 100%, 83%, 17%, not significant.

Turning to `CC(C)(C)c1cc(CO)cc(C(C)(C)C)c1O`, the “tumour outcome (control, treated, inhibition, significance)” value (Carcinogen: 7,12-DIMETHYLBENZ[A]ANTHRACENE, 57-97-6, Dose [Inhibitor]: 0, 200 MG/KG BW/D FOR 3 WK BEGINNING 2 WK PRIOR TO CARCINOGEN DOSE (STUDY DURATION: 24 WK), Route [Inhibitor]: INTRAPERITONEAL, Species: RAT, Strain/Sex: SPRAGUE-DAWLEY/FEMALE, Target Tissue: Type of Lesion: MAMMARY GLAND: TUMOR, Dose [Carcinogen]: 33.3 MG/KG BW IN 0.25 ML CORN OIL ONCE AT 50 D OF AGE) is 91%, 81%, 11%, not significant.
